Measured values from patent US20090226455A1, “COMBINATION THERAPY WITH C-MET AND HER ANTAGONISTS” (Genentech, Inc., priority 2008, published 2009).

Tests used:
EBC-1 shMet-4.5 tumors = assay: EBC-1 shMet-4.5 NSCLC xenograft model, tumor growth inhibition; assay type: in vivo, nude mice (nu/nu); conditions: compared to sucrose control at day 29; pertuzumab 5 mg/kg IP once a week; Dox 1 mg/mL in 5% sucrose drinking water (induces c-met shRNA knockdown)
Description: Control antibodies mouse IgG2a isotype 10D9-1E11-1F12 (anti-Ragweed) antibody and the human IgG1 isotype hu5B6 (anti-gD) antibody were obtained from the Antibody Engineering Department at Genentech, Inc., in a clear liquid form and were diluted in 1×PBS. Doxycycline (Dox) was prepared fresh at 0.5 or 1 mg/mL in 5% sucrose water and was regularly exchanged every 3 days. In Dox studies, control animals were given 5% sucrose water that was exchanged every 3 days. Materials were stored in a refrigerator set to maintain a temperature range of 4° C. to 8° C. […]
To prepare cells for inoculation into mice, cells were trypsinized, washed with ten milliliters of sterile 1× phosphate buffered saline (PBS). A subset of cells was counted by trypan blue exclusion and the remainder of cells was resuspended in 100 μl of sterile 1× PBS to a concentration of 5×10^7 cells per milliliter. […] Tumors were monitored until they reached a mean volume of 200 mm^3.
Mice in Group 1 were treated with anti-Ragweed control antibody (5 mg/kg, IP, once a week for 5 weeks) and given 5% sucrose drinking water. […] Tumor volumes were monitored through day 29. […]
Tumor inhibition was plotted using KaleidaGraph 3.6 (Synergy Software; Reading, Pa.). Percent growth inhibition (% Inh) was calculated as follows: […]
Tumor incidence was determined by the number of measurable tumors in each group at the end of study. […]

advanced ovarian cancer = conditions: 3 subjects with advanced ovarian cancer treated; one subject; cited from earlier work

Compound: C[C@H]1c2cccc(O)c2C(=O)C2=C(O)[C@]3(O)C(=O)C(C(N)=O)=C(O)[C@@H](N(C)C)[C@@H]3[C@@H](O)[C@@H]21 [Dox, Doxycycline, reference compound]
- tumor inhibition (reduction in tumor growth) (EBC-1 shMet-4.5 tumors): 54%

Compound: pertuzumab: humanized antibody that inhibits the dimerization of HER2 with other HER receptors; light and heavy chain SEQ ID NOs 15 and 16
- tumor inhibition (reduction in tumor growth) (EBC-1 shMet-4.5 tumors): 43.6%
- clinical response (advanced ovarian cancer): durable partial response
